Source: paper PMC11231114 (EJNMMI Research, 2024)

Assays:
dog hepatocytes = assay: Metabolite profiling in cryopreserved hepatocytes (in vitro MetID); type: in vitro ADME; conditions: for Relative abundance of metabolites calculated as % of parent (SYN2), Dog: 1 µM SYN2, 37 °C
Method: (§1) The metabolite profiling and characterization experiment of SYN2 molecule (in vitro MetID, Admescope) was conducted to evaluate potential metabolic pathways. In order to characterize the metabolites of SYN2, the compound was incubated in cryopreserved rat, dog and human hepatocytes. Prior to the incubation, the hepatocytes were thawed, suspended in Williams medium E and then centrifuged to receive a target density of about 1 million cells/ml. A SYN2 solution of 1 µM was then added to the hepatocyte suspension and incubated at 37 °C for 0, 30 and 60 min. The incubations were stopped by the addition of acetonitrile, then frozen and centrifuged to remove precipitated proteins. Supernatants were then analysed with ultra-performance liquid chromatography (UPLC) and high-resolution mass spectrometry (HRMS).
(§2) Compound Discoverer (CD) was used for data mining with manual confirmation for metabolite profiling and characterization.

human hepatocytes = assay: as above; type: in vitro ADME; conditions: for Relative abundance of metabolites calculated as % of parent (SYN2), Human: 1 µM SYN2, 37 °C
Method: as §1, §2

rat hepatocytes = assay: as above; type: in vitro ADME; conditions: for Relative abundance of metabolites calculated as % of parent (SYN2), Rat: 1 µM SYN2, 37 °C
Method: as §1, §2

[1] = Plasma pharmacokinetics of non-radioactive SYN2, single i.v. 2 mg/kg, LC-MS/MS; type: in vivo, Wistar rats
Method: The pharmacokinetic study was also conducted using non-radioactive reference standard of [^18F]SYN2 after a single i.v. administration at a dose of 2 mg/kg in rats. Blood samples of about 0.5 ml were collected in K3-EDTA tubes at pre-dose time and 4 min, 15 min, 30 min, 60 min, 4 h, and 24 h after injection (three rats were used at each time point, each rat was bled twice). Blood samples were then centrifuged at approx. 3270 g at 5 ± 3 °C for 10 min to extract plasma, divided in two aliquots and analysed (54 plasma samples in total). The concentrations of SYN2 were determined according to a LC-MS/MS validated method according to the Guidance for Industry (FDA) and Guidance on Validation of Bioanalytical Methods (EMA).

[2] = test system: GPCRs, drug transporters, ion channels, nuclear receptors and enzymes; assay: Radioligand binding assays, remaining 65 assays of the panel of 68; conditions: 1 µM
Method: (§3) The possibility of pharmacological interactions of SYN2 was assessed in vitro in radioligand binding assays on key pharmacological target classes including GPCRs, drug transporters, ion channels, nuclear receptors and enzymes (LeadProfilingScreen SafetyScreen, PP68, Panel of 68 receptors, Eurofins Panlabs, Inc.). There was only one SYN2 concentration of 1 µM used in the study.
(§4) IC50 values from pharmacodynamics assessment were determined by a non-linear, least squares regression analysis using MathIQ™ (ID Business Solutions Ltd., UK). Where inhibition constants (Ki) are presented, the Ki values were calculated using the equation of Cheng and Prusoff using the observed IC50 of the tested compound, the concentration of radioligand employed in the assay, and the historical values for the KD of the ligand (obtained experimentally at Eurofins Panlabs, Inc.). Where presented, the Hill coefficient (nH), defining the slope of the competitive binding curve, was calculated using MathIQ™.

[3] = molecular target: T1, muscarinic acetylcholine M1 receptor (Homo sapiens, UniProt P11229); assay: Radioligand binding assay (LeadProfilingScreen SafetyScreen panel); conditions: 1 µM
T1 construct: purchased Eurofins Panlabs, Inc. PP68
T1 sequence (P11229 1-460): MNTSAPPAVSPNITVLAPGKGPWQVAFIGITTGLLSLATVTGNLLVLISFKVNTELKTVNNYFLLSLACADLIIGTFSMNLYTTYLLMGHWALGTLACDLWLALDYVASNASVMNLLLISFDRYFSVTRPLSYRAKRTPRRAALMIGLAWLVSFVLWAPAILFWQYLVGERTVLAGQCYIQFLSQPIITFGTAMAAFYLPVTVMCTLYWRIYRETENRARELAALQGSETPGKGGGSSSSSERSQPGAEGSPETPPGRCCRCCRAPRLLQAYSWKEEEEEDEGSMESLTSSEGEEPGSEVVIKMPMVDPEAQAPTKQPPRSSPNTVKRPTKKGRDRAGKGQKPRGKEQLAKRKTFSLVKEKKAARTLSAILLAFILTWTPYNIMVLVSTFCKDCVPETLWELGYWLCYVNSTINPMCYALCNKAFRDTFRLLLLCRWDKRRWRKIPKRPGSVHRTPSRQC
Method: as §3, §4

[4] = molecular target: T2, muscarinic M2 acetylcholine receptor (Homo sapiens, UniProt P08172); assay: as above; conditions: 1 µM
T2 construct: purchased Eurofins Panlabs, Inc. PP68
T2 sequence (P08172 1-466): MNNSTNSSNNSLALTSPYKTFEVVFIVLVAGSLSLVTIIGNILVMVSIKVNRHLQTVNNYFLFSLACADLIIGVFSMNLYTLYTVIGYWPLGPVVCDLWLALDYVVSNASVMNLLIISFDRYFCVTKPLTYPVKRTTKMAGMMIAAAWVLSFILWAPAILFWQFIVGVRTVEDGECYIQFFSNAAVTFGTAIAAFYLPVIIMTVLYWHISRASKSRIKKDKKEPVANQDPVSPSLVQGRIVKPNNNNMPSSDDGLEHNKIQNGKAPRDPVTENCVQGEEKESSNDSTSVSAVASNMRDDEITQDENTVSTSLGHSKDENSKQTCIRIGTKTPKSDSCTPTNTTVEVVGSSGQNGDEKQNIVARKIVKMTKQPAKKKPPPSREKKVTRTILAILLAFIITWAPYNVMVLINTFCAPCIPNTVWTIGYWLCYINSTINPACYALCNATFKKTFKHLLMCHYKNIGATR
Method: as §3, §4

potassium channel hERG = molecular target: T3, potassium channel hERG (Homo sapiens, UniProt Q12809); assay: as above; conditions: 1 µM
T3 construct: purchased Eurofins Panlabs, Inc. PP68
T3 sequence (Q12809 whole entry): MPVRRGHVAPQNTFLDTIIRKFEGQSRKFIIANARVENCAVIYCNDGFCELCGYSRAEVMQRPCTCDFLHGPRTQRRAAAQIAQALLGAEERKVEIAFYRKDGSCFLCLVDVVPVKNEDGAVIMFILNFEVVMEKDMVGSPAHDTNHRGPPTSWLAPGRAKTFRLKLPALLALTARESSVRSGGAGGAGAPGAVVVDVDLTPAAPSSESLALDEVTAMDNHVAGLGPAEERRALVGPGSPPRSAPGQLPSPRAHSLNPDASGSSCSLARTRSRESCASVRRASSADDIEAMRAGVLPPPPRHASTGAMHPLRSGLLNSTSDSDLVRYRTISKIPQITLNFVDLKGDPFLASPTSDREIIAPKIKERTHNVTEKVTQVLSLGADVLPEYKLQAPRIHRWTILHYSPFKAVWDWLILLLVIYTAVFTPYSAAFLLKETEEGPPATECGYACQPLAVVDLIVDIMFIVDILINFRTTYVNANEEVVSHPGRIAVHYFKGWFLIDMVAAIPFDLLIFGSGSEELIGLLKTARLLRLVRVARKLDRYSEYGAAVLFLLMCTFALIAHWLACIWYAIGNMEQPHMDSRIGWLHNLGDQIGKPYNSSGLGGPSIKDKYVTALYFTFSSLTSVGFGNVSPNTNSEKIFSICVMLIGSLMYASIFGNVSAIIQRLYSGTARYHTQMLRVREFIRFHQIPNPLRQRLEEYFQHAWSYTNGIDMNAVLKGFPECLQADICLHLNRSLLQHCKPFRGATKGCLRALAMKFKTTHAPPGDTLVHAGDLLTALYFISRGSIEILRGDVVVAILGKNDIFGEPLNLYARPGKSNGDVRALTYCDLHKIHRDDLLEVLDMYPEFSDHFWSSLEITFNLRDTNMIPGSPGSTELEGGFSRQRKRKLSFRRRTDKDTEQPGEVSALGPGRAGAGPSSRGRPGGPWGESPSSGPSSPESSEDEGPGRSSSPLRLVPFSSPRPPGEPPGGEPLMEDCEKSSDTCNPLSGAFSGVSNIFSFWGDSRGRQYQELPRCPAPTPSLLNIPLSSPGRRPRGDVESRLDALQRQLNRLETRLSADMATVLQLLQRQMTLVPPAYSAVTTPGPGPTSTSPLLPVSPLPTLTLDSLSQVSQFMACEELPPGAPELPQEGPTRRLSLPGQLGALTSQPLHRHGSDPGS
Method: as §3, §4

Wistar rats = assay: Extended single dose toxicity study, i.v. 2 mg/kg b.w.
Method: Throughout the experiment, the animals’ behaviour was observed and their weight recorded.
The normality distribution was tested with Shapiro-Wilk test. For homogeneity of variance Brown-Forsythe test has been used. For normal distribution and homogeneous variances results, Student’s t-test was used. In the absence of normal distribution, Mann-Whitney test was used. In the case of non-homogenous variance, Cochrane-Cox test was used.

hERG = hERG (Homo sapiens, UniProt Q12809); assay: Functional assay at several concentrations; type: biochemical; conditions: antagonistic effect
hERG, sequence (Q12809 whole entry): as above
Method: (§5) IC50 values from pharmacodynamics assessment were determined by a non-linear, least squares regression analysis using MathIQ™ (ID Business Solutions Ltd., UK). […] Where presented, the Hill coefficient (nH), defining the slope of the competitive binding curve, was calculated using MathIQ™.

muscarinic M2 = molecular target: T4, muscarinic M2 (Homo sapiens, UniProt P08172); assay: Functional assay at several concentrations; type: biochemical; conditions: antagonistic effect
T4 sequence (P08172 1-466): T2 sequence (P08172 1-466)
Method: as §5

[5] = Expected human Cmax after body surface area correction; conditions: read-out: expected Cmax, proposed maximum limit dose of 100 µg (2 µg/kg for a 50-kg patient)
[6] = clinical examinations, 2 mg/kg b.w. i.v., treated vs control
[7] = clinical-chemical examinations, 2 mg/kg b.w. i.v., treated vs control
[8] = post mortem examination, 2 mg/kg b.w. i.v., treated vs control

For `CN(C)c1ccc2cc3ccc(N(C)C)cc3[n+](CCF)c2c1` [SYN2], which “Relative abundance of metabolites calculated as % of parent (SYN2), Dog” value (dog hepatocytes; 30 min) is on record?
The value was 100 % of parent.

And the “Relative abundance of metabolites calculated as % of parent (SYN2), Dog” value (dog hepatocytes; 60 min)?
Its value is 100 % of parent.

What about the unchanged parent remaining (dog hepatocytes; after 60 min, dog hepatocytes) of the same compound?
Its unchanged parent remaining is 5%.

What about the “Relative abundance of metabolites calculated as % of parent (SYN2), Human” value (human hepatocytes; 30 min) of the same compound?
Its value is 100 % of parent.

And the “Relative abundance of metabolites calculated as % of parent (SYN2), Human” value (human hepatocytes; 60 min)?
Its value is 100 % of parent.

And the “unchanged SYN2 remaining” value (human hepatocytes; after 60 min, human hepatocytes)?
Its value is 70%.

And the “Relative abundance of metabolites calculated as % of parent (SYN2), Rat” value (rat hepatocytes; 30 min)?
Its value is 100 % of parent.

And the “Relative abundance of metabolites calculated as % of parent (SYN2), Rat” value (rat hepatocytes; 60 min)?
Its value is 100 % of parent.

And the unchanged parent remaining (rat hepatocytes; after 60 min, rat hepatocytes)?
The unchanged parent remaining was 32%.

What about the AUCt ([1]; rat plasma) of the same compound?
The AUCt was 73.75 ng·h/mL.

What about the Clast ([1]; rat plasma) of the same compound?
The Clast was 8.95 ng/mL.

And the Cmax ([1]; rat plasma)?
Its Cmax is 368.67 ng/mL.

And the Tmax ([1]; rat plasma)?
Its Tmax is 4.2 min.

And the Vz ([1]; rat plasma)?
The Vz was 0.99 L/kg.

What about the Cl ([1]; rat plasma clearance) of the same compound?
Its Cl is 43.2 mL/min/kg.

What about the T½λz ([1]; terminal half-life, rat plasma) of the same compound?
Its T½λz is 15.6 min.

What about the “mean response, remaining 65 assays” value [2] of the same compound?
The value was 7.63%.

What about the “median response, remaining 65 assays” value [2] of the same compound?
Its value is 4%.

What about the inhibition [3] of the same compound?
The inhibition was 58%.

What about the inhibition [4] of the same compound?
The inhibition was 68%.

And the inhibition (potassium channel hERG)?
Its inhibition is 57%.

And the Body weight (Wistar rats; [6])?
Its Body weight is “-”.

What about the Clinical observations (Wistar rats; [6]) of the same compound?
Its Clinical observations is “-”.

What about the Mortality (Wistar rats; [6]) of the same compound?
The Mortality was “-”.

What about the Biochemical investigations (Wistar rats; [7]) of the same compound?
Its Biochemical investigations is “+”.

What about the Enzymatic investigations (Wistar rats; [7]) of the same compound?
Its Enzymatic investigations is “+”.

What about the Haematological investigations (Wistar rats; [7]) of the same compound?
Its Haematological investigations is “-”.

And the Gross examination (Wistar rats; [8])?
The Gross examination was “+”.

And the Histopathological examinations (Wistar rats; [8])?
Its Histopathological examinations is “+”.

What about the “Weight of internal organs” value (Wistar rats; [8]) of the same compound?
Its value is “+”.

And the “Tolerability in the toxicological study” value (Wistar rats; single i.v. 2 mg/kg b.w., Wistar rats)?
Its value is “well-tolerated”.

And the “No Observed Adverse Effect Level (NOAEL)” value (Wistar rats; single i.v. dose, Wistar rats)?
The value was 2 mg/kg.

And the IC50 (hERG)?
The IC50 was about 1000 nM.

What about the IC50 (muscarinic M2) of the same compound?
Its IC50 is about 1000 nM.

What about the Cmax [5] of the same compound?
The Cmax was 1.1 nM.
